According to ChEMBL document CHEMBL3091290, “2-(2-Phenylmorpholin-4-yl)pyrimidin-4(3H)-ones; a new class of potent, selective and orally active glycogen synthase kinase-3β inhibitors” (Bioorg Med Chem Lett, 2013):

Experiments:
Liver microsome [1] = test: Intrinsic clearance in human liver microsomes; type: ADME
Cytochrome P450 1A2 = molecular target: T1, Cytochrome P450 1A2 (Homo sapiens, UniProt P05177); test: Inhibition of recombinant human CYP1A2; type: ADME
T1 sequence (P05177 whole entry): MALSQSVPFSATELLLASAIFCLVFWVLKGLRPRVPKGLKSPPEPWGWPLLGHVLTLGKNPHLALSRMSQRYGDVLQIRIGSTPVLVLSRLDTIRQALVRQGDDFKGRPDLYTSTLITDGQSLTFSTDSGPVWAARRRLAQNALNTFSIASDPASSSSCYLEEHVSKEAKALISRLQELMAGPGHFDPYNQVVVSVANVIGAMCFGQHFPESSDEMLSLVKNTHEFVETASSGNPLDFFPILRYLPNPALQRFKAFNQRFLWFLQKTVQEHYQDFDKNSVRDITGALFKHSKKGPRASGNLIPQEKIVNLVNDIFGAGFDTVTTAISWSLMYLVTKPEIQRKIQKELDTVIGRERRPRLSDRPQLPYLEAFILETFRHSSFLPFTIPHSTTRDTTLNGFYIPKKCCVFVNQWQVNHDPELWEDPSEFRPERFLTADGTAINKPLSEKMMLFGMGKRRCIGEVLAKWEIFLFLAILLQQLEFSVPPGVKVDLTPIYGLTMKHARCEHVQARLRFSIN

Cytochrome P450 2D6 = Cytochrome P450 2D6 (Homo sapiens, UniProt P10635); test: Inhibition of recombinant human CYP2D6; type: ADME
[2] = molecular target: Glycogen synthase kinase-3 beta (Homo sapiens, UniProt P49841); test: Inhibition of human recombinant GSK-3beta using prephosphorylated GS1 peptide and [gamma-32P]ATP as substrate after 1 hr by liquid scintillation spectrometry
Cytochrome P450 3A4 = Cytochrome P450 3A4 (Homo sapiens, UniProt P08684); test: Inhibition of recombinant human CYP3A4; type: ADME
[3] = Permeability of the compound across human Caco2 cells; type: ADME, cell-based; details: Caco-2, read-out: permeability
MDR1 (P-glycoprotein) = test: Permeability efflux ratio in MDR1 expressing pig LLC cells; type: ADME, cell-based, Sus scrofa; details: LLC-PK1
[4] = Volume of distribution at steady state in Sprague-Dawley rat at 1 mg/kg, iv; type: ADME, organism-based; set-up: dose 1 mg/kg, route intravenous; details: in vivo, read-out: Vdss
[5] = Oral bioavailability in Sprague-Dawley rat at 10 mg/kg; type: ADME, organism-based; details: in vivo
[6] = AUC (0 to infinity) in Sprague-Dawley rat at 10 mg/kg, po; type: ADME, organism-based; set-up: time infinity, dose 10 mg/kg, route oral; details: plasma
[7] = Ratio of drug level in brain (0 to infinity) to plasma (0 to infinity) in ICR mouse at 1 mg/kg, po; type: ADME, organism-based; set-up: dose 1 mg/kg, route oral; details: read-out: BPR
[8] = Total clearance in Sprague-Dawley rat at 1 mg/kg, iv; type: ADME, organism-based; set-up: dose 1 mg/kg, route intravenous; details: in vivo
[9] = molecular target: Casein kinase I isoform alpha (Homo sapiens, UniProt P48729); test: Inhibition of CK1 (unknown origin)
Rattus norvegicus = test: Cmax in Sprague-Dawley rat at 10 mg/kg, po; type: ADME, organism-based; set-up: dose 10 mg/kg, route oral; details: in vivo
[10] = Half life in Sprague-Dawley rat at 10 mg/kg, po; type: ADME, organism-based; set-up: dose 10 mg/kg, route oral; details: in vivo
Liver microsome [11] = test: Clearance in rat liver microsomes; type: ADME

Chain of Glycogen synthase kinase-3 beta (P49841 whole entry): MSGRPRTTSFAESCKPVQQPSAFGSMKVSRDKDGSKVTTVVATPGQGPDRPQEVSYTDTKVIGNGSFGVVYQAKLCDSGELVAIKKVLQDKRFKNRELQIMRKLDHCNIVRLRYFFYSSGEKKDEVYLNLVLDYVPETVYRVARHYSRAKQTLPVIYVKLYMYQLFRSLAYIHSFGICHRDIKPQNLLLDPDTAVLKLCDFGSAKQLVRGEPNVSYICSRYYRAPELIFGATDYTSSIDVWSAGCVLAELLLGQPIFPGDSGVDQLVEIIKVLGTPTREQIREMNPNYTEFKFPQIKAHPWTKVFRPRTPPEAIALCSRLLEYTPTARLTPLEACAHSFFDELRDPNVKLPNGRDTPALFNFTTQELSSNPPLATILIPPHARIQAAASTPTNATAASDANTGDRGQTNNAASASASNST
Chain of Cytochrome P450 3A4 (P08684 whole entry): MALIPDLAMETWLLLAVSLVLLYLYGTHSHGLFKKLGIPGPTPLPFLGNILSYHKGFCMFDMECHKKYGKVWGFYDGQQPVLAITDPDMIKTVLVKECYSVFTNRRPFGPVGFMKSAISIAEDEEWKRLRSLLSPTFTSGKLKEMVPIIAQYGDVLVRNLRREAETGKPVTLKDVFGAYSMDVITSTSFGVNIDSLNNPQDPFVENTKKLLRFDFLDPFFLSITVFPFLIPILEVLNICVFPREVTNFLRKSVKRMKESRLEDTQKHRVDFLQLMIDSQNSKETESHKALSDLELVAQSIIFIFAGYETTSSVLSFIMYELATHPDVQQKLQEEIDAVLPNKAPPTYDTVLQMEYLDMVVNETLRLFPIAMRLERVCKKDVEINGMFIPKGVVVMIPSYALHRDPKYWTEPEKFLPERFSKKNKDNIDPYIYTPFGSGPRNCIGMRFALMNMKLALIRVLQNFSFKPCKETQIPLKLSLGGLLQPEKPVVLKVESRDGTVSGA
Chain of Cytochrome P450 2D6 (P10635 whole entry): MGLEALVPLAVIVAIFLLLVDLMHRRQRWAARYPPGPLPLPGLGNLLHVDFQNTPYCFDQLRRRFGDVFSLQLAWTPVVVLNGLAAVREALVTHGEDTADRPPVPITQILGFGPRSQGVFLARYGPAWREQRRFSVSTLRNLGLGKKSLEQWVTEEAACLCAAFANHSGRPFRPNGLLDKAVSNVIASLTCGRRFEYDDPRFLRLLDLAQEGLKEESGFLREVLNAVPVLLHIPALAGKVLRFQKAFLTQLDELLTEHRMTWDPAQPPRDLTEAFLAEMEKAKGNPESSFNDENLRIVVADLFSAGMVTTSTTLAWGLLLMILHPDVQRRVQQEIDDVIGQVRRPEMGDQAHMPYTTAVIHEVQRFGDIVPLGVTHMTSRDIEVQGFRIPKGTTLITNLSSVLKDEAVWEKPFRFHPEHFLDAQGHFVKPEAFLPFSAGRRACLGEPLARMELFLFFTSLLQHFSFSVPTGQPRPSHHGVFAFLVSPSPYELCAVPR
Chain of Casein kinase I isoform alpha (P48729 whole entry, canonical isoform): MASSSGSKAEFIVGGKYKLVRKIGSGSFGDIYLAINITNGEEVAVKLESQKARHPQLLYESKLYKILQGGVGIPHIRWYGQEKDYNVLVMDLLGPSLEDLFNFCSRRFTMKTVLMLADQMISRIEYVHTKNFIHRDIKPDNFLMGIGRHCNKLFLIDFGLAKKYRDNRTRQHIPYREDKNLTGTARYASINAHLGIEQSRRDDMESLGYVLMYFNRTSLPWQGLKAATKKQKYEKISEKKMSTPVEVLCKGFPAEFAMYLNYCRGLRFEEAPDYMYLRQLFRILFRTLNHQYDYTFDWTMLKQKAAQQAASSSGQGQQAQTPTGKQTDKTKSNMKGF

Row | Structure (SMILES) | Intrinsic clearance (Liver microsome [1]) [µL/min/mg] | IC50 (Cytochrome P450 1A2) [µM] | IC50 (Cytochrome P450 2D6) [µM] | IC50 [2] [µM] | IC50 (Cytochrome P450 3A4) [µM] | further results
1 | COc1cccc([C@H]2CN(c3nc(-c4ccncn4)cc(=O)n3C)CCO2)c1 | 130 | > 50 | 26.6 | 0.0046 | > 50 | 
2 | Cn1c(N2CCO[C@@H](c3ccc(F)cc3)C2)nc(-c2ccncc2F)cc1=O |  | 5.5 | 22.1 | 0.0074 | > 50 | 
3 | Cc1cnccc1-c1cc(=O)n(C)c(N2CCO[C@@H](c3ccc(F)cc3)C2)n1 |  |  |  | 2.47 |  | 
4 | COc1cnccc1-c1cc(=O)n(C)c(N2CCO[C@@H](c3ccc(F)cc3)C2)n1 |  |  |  | 0.791 |  | 
5 | Cn1c(N2CCO[C@@H](c3ccc(C#N)cc3)C2)nc(-c2ccncn2)cc1=O | 30 | > 50 | 4.5 | 0.013 |  | 
6 | COc1ccc([C@H]2CN(c3nc(-c4ccncn4)cc(=O)n3C)CCO2)cc1 | 110 | > 50 | 6.9 | 0.0029 |  | 
7 | Cn1c(N2CCO[C@@H](c3ccccc3F)C2)nc(-c2ccncn2)cc1=O | 100 | 23.3 | 32.4 | 0.0032 |  | 
8 | COc1ccccc1[C@H]1CN(c2nc(-c3ccncn3)cc(=O)n2C)CCO1 | 190 | 15.7 | 16 | 0.00087 |  | 
9 | COc1cc(F)ccc1[C@H]1CN(c2nc(-c3ccncn3)cc(=O)n2C)CCO1 | 180 | 16.5 | 18 | 0.00047 |  | 
10 | COc1cccc(OC)c1[C@H]1CN(c2nc(-c3ccncn3)cc(=O)n2C)CCO1 | 200 | > 50 | > 50 | 0.00023 |  | 
11 | Cn1c(N2CCO[C@@H](c3ccc(C#N)cc3F)C2)nc(-c2ccncn2)cc1=O | 30 | > 50 | 26.7 | 0.0065 |  | 
12 | Cn1c(N2CCO[C@@H](c3c(F)cccc3Cl)C2)nc(-c2ccncn2)cc1=O | 70 | 19.5 | 32.3 | 0.00064 |  | 
13 | Cn1c(NCC(=O)c2ccccc2)nc(-c2ccncc2)cc1=O |  |  | > 50 |  | > 50 | 
14 | Cn1c(N2CCOC(c3ccccc3)C2)nc(-c2ccncc2)cc1=O (racemic) |  | 23.1 | 47.4 | 0.051 | > 50 | CLH (Liver microsome [11]): 155 µL/min/mg

More lines, main results first:

Row | Intrinsic clearance (Liver microsome [1]) [µL/min/mg] | IC50 (Cytochrome P450 1A2) [µM] | IC50 (Cytochrome P450 2D6) [µM] | IC50 [2] [µM] | IC50 (Cytochrome P450 3A4) [µM] | Structure (SMILES) | further results
15 |  | 17.1 | 44.2 | 0.022 | > 50 | Cn1c(N2CCO[C@@H](c3ccc(F)cc3)C2)nc(-c2ccncc2)cc1=O | 
16 |  |  |  | 0.077 |  | Cn1c(N2CCO[C@H](c3ccc(F)cc3)C2)nc(-c2ccncc2)cc1=O | 
17 |  |  |  | 0.43 |  | Cn1c(N2CCO[C@@H](c3ccc(F)cc3)C2)nc(-c2ccncc2Cl)cc1=O | 
18 |  |  |  | 0.903 |  | Cn1c(N2CCO[C@@H](c3ccc(F)cc3)C2)nc(-c2ccnc(Cl)c2)cc1=O | 
19 | 60 | 29.4 | 39.7 | 0.012 | > 50 | Cn1c(N2CCO[C@@H](c3ccc(F)cc3)C2)nc(-c2ccncn2)cc1=O | Papp [3]: 58.3 ×10⁻⁶ cm/s; efflux ratio (MDR1 (P-glycoprotein)): 1; Vd [4]: 2.4 L/kg; bioavailability [5]: 37%; AUC(0-inf) [6]: 1300 ng·h/mL; Kp [7]: 3.1; clearance [8]: 48.3 mL/min/kg; IC50 [9]: 1.5 µM; Cmax (Rattus norvegicus): 221 ng/mL; half-life [10]: 1.7 h
20 |  | 23.9 | 35.8 | 0.027 | > 50 | Cn1c(N2CCOC(c3ccc(F)cc3)C2)nc(-c2ccncc2)cc1=O (racemic) | CLH (Liver microsome [11]): 104 µL/min/mg
